One data set has as its system osteoclastogenesis. Put plainly: In vitro osteoclast differentiation assay. The class given is cell-based, mice. Particulars: 10 μM inhibitor, rM-CSF and RANKL, 5–7 d.
For data set [1] the following is noted: ref 14b, cited from earlier work.
For data set [2] the following is noted: previously reported; ref 14b; cited from earlier work.
For data set [3] the following is noted: previously reported; ref 14b; cited from earlier work. The source holds these as a separate data set.
The conditions of data set [4]: previously reported; ref 14b; cited from earlier work. This is another data set of the same source.
Data set [5] relates to monocytes, MSCs, or mature osteoclasts. Particulars: even at a concentration of 10 μM; ref manuscript submitted; cited from earlier work.
The subject of data set [6] is MDA-MB-231 breast cancer xenograft. Particulars: cited from earlier work.
For data set [7] the following is noted: cited from earlier work.

Converted amounts (≈) assume the structure as drawn.

On to `CNC(=O)[C@@H](NC(=O)c1ccc(-c2ccc(CSc3nc4c(c(=O)[nH]3)CCC4)c(F)c2)o1)C(C)C` [RF036], for which the “Osteoclastogenesis level compared with control” value in the data set on osteoclastogenesis was 24%. The Solubility in data set [1] (converted from […] with MW 499.17 g/mol) was 7.74 µg/mL (≈ 15.5 µM). Besides, the “Solubility class in words” value in data set [1] (poor defined as <10 μg/mL or <20 μM) is reported as “poor solubility”. Also, in data set [2], the Human microsome half-life was 12 min. In data set [3], the Rat microsome half-life was 9 min. Also, the Mouse microsome half-life in data set [4] is on record as 20 min. In data set [5], the “Toxicity towards monocytes, MSCs, or mature osteoclasts” value is listed as “not due to the compound being toxic”.

In the case of `COCCC1(Oc2ccc(Oc3ccc(-c4nc(-c5ccc(F)cc5)co4)cc3)cc2)C(=O)NC(=O)NC1=O` [compound 28, 5-(4-{4-[4-(4-fluorophenyl)-1,3-oxazol-2-yl]phenoxy}phenoxy)-5-(2-methoxyethyl)-pyrimidine-2,4,6 (1H,3H,5H)-trione], the “MDA-MB-231 breast cancer xenograft growth” value in data set [6] is “inhibited MDA-MB-231 breast cancer xenograft growth”. Moreover, in data set [6] (in vivo prevention study), the Osteolytic damage entry is listed as “significantly reduced osteolytic damage”. The “Creatine kinase (measure of muscle toxicity)” value in data set [7] is recorded as “did not cause an increase in creatine kinase”.

As usually defined, the Solubility is the concentration that dissolves in the medium under given conditions.

These data come from paper PMC8035250 (ChemMedChem, 2021).
